Measurements from patent publication US20190010139A1 (priority 2015, published 2019).
pEC50: −log10 of the molar value. Like-named read-outs stand apart in the source and are kept apart here.

Tested on: NL-RLuc virus
Assay: Inhibition of HIV replication (NL-RLuc luciferase reporter virus in MT-2 cells)
Assay type: cell-based
Settings: Human immunodeficiency virus 1, MT2, 120 h; for pEC50: read-out: Activity; for EC50: read-out: EC50 μM
Source text: Inhibition of HIV Replication:
A recombinant NL-RLuc proviral clone was constructed in which a section of the nef gene from NL4-3 was replaced with the Renilla Luciferase gene. This virus is fully infectious and can undergo multiple cycles of replication in cell culture. In addition, the luciferous reporter provides a simple and easy method for quantitating the extent of virus growth and consequently, the antiviral activity of test compounds. The plasmid pNLRLuc contains the proviral NL-Rluc DNA cloned into pUC 18 at the PvuII site. The NL-RLuc virus was prepared by transfection of 293T cells with the plasmid pNLRLuc. Transfections were performed using the LipofectAMINE PLUS kit from Invitrogen (Carlsbad, Calif.) according to the manufacturer and the virus generated was titered in MT-2 cells. For susceptibility analyses, the titrated virus was used to infect MT-2 cells in the presence of compound, and after 5 days of incubation, cells were processed and quantitated for virus growth by the amount of expressed luciferase. Assay media was RPMI 1640 supplemented with 10% heat inactivated fetal bovine serum (FBS), 100 units/ml penicillin G/100 units/ml streptomycin, 10 mM HEPES buffer pH 7.55 and 2 mM L-glutamine. The results from at least 2 experiments were used to calculate the EC50 values. Luciferase was quantitated using the Dual Luciferase kit from Promega (Madison, Wis.). Susceptibility of viruses to compounds was determined by incubation in the presence of serial dilutions of the compound. The 50% effective concentration (EC50) was calculated by using the exponential form of the median effect equation where (Fa)=1/[1+(ED50/drug conc.)^m](Johnson V A, Byington R T. Infectivity Assay. In Techniques in HIV Research. ed. Aldovini A, Walker B D. 71-76. New York: Stockton Press.1990). Activity equal to A refers to a compound having an EC50≤100 nM, while B and C denote compounds having an EC50 between 100 nM and 1 uM (B) or >1 uM (C).

Structure (SMILES)	pEC50	EC50
Cc1nc(C)c([C@H](OC(C)(C)C)C(=O)O)c(N2CCC3(CC2)CC3(F)F)c1-c1ccc(C(=O)NCc2ccccc2)cc1 [Example 71, (S)-2-(5-(4-(Benzylcarbamoyl)phenyl)-4-(1,1-difluoro-6-azaspiro[2.5]octan-6-yl)-2,6-dimethylpyridin-3-yl)-2-(tert-butoxy)acetic acid]	> 7.00	0.018 µM
Cc1nc(CNCC2CCCCC2)c(-c2ccc(OCCc3ccc(F)cc3)cc2)c(N2CCC3(CCC3)CC2)c1[C@H](OC(C)(C)C)C(=O)O [Example 56, (S)-2-(tert-Butoxy)-2-(6-(((cyclohexylmethyl)amino)methyl)-5-(4-(4-fluorophenethoxy)phenyl)-2-methyl-4-(7-azaspiro[3.5]nonan-7-yl)pyridin-3-yl)acetic acid]	> 7.00	
Cc1nc(C)c([C@H](OC(C)(C)C)C(=O)O)c(N2CCC3(CCCO3)CC2)c1-c1ccc(OCCc2ccc(F)cc2)cc1 [Example 66, (S)-2-(tert-Butoxy)-2-(5-(4-(4-fluorophenethoxy)phenyl)-2,6-dimethyl-4-(1-oxa-8-azaspiro[4.5]decan-8-yl)pyridin-3-yl)acetic acid]	> 7.00	
Cc1nc(C)c([C@H](OC(C)(C)C)C(=O)O)c(N2CCC3(CCCCC3)C2)c1-c1ccc(OCCc2ccc(F)cc2)cc1 [Example 62, (S)-2-(tert-Butoxy)-2-(5-(4-(4-fluorophenethoxy)phenyl)-2,6-dimethyl-4-(2-azaspiro[4.5]decan-2-yl)pyridin-3-yl)acetic acid]	> 7.00	0.017 µM
Cc1cc(F)ccc1CN1CCc2cc(-c3c(C)nc(C)c([C@H](OC(C)(C)C)C(=O)O)c3N3CCC4(CCC4)CC3)ccc2C1 [Example 35, (S)-2-(tert-Butoxy)-2-(5-(2-(4-fluoro-2-methylbenzyl)-1,2,3,4-tetrahydroisoquinolin-6-yl)-2,6-dimethyl-4-(7-azaspiro[3.5]nonan-7-yl)pyridin-3-yl)acetic acid]	> 7.00	0.006 µM
COc1cc(-c2c(C)nc(C)c([C@H](OC(C)(C)C)C(=O)O)c2N2CCC3(CCCC3)CC2)ccc1C(=O)NCc1ccccc1 [Example 25, (S)-2-(5-(4-(Benzylcarbamoyl)-3-methoxyphenyl)-2,6-dimethyl-4-(8-azaspiro[4.5]decan-8-yl)pyridin-3-yl)-2-(tert-butoxy)acetic acid]	> 7.00	
Cc1nc(C)c([C@H](OC(C)(C)C)C(=O)O)c(N2CCC3(CCCC3)CC2)c1-c1ccc(OCC(C)(C)c2ccc(F)cc2)cc1 [Example 22, (S)-2-(tert-Butoxy)-2-(5-(4-(2-(4-fluorophenyl)-2-methylpropoxy)phenyl)-2,6-dimethyl-4-(8-azaspiro[4.5]decan-8-yl)pyridin-3-yl)acetic acid]	> 7.00	0.026 µM
Cc1nc(C)c([C@H](OC(C)(C)C)C(=O)O)c(N2CC3C(C2)C3(C)C)c1-c1ccc(OCCc2ccc(F)cc2)cc1 (stereo partly drawn) [Example 8, (2S)-2-(tert-Butoxy)-2-(4-(6,6-dimethyl-3-azabicyclo[3.1.0]hexan-3-yl)-5-(4-(4-fluorophenethoxy)phenyl)-2,6-dimethyl-pyridin-3-yl)acetic acid]	> 7.00	
Cc1nc(C)c([C@H](OC(C)(C)C)C(=O)O)c(N2CCC3(CCCC3)CC2)c1-c1ccc(OCCc2ccc(F)cc2)cc1 [Example 20, (S)-2-(tert-Butoxy)-2-(5-(4-(4-fluorophenethoxy)phenyl)-2,6-dimethyl-4-(8-azaspiro[4.5]decan-8-yl)pyridin-3-yl)acetic acid]	> 7.00	
Cc1nc(CN(C)CC2CCCCC2)c(-c2ccc(OCCc3ccc(F)cc3)cc2)c(N2CCC3(CCC3)CC2)c1[C@H](OC(C)(C)C)C(=O)O [Example 59, (S)-2-(tert-Butoxy)-2-(6-(((cyclohexylmethyl)(methyl)amino)methyl)-5-(4-(4-fluorophenethoxy)phenyl)-2-methyl-4-(7-azaspiro[3.5]nonan-7-yl)pyridin-3-yl)acetic acid]	> 7.00	
Cc1nc(CN(C)CC2CCOCC2)c(-c2ccc(OCCc3ccc(F)cc3)cc2)c(N2CCC3(CCC3)CC2)c1[C@H](OC(C)(C)C)C(=O)O [Example 46, (S)-2-(tert-Butoxy)-2-(5-(4-(4-fluorophenethoxy)phenyl)-2-methyl-6-((methyl((tetrahydro-2H-pyran-4-yl)methyl)amino)methyl)-4-(7-azaspiro[3.5]nonan-7-yl)pyridin-3-yl)acetic acid]	> 7.00	
Cc1nc(C)c([C@H](OC(C)(C)C)C(=O)O)c(N2CCC3(CCCCCC3)C2)c1-c1ccc(OCCc2ccc(F)cc2)cc1 [Example 64, (S)-2-(tert-Butoxy)-2-(5-(4-(4-fluorophenethoxy)phenyl)-2,6-dimethyl-4-(2-azaspiro[4.6]undecan-2-yl)pyridin-3-yl)acetic acid]	> 7.00	
Cc1nc(CF)c(-c2ccc(OCCc3ccc(F)cc3)cc2)c(N2CCC3(CCC3)CC2)c1[C@H](OC(C)(C)C)C(=O)O [Example 40, (S)-2-(tert-Butoxy)-2-(6-(fluoromethyl)-5-(4-(4-fluorophenethoxy)phenyl)-2-methyl-4-(7-azaspiro[3.5]nonan-7-yl)pyridin-3-yl)acetic acid]	> 7.00	
Cc1nc(CO)c([C@H](OC(C)(C)C)C(=O)O)c(N2CCC3(CCC3)CC2)c1-c1ccc(OCCc2ccc(F)cc2)cc1 [Example 39, (S)-2-(tert-Butoxy)-2-(5-(4-(4-fluorophenethoxy)phenyl)-2-(hydroxymethyl)-6-methyl-4-(7-azaspiro[3.5]nonan-7-yl)pyridin-3-yl)acetic acid]	> 7.00	
Cc1nc(C)c([C@H](OC(C)(C)C)C(=O)O)c(N2CCC3(CCC3)CC2)c1-c1ccc(C(=O)NCc2ccccc2)cc1 [Example 29, (S)-2-(5-(4-(Benzylcarbamoyl)phenyl)-2,6-dimethyl-4-(7-azaspiro[3.5]nonan-7-yl)pyridin-3-yl)-2-(tert-butoxy)acetic acid]	> 7.00	0.007 µM
Cc1nc(CN2CCOCC2)c(-c2ccc(OCCc3ccc(F)cc3)cc2)c(N2CCC3(CCC3)CC2)c1[C@H](OC(C)(C)C)C(=O)O [Example 54, (S)-2-(tert-Butoxy)-2-(5-(4-(4-fluorophenethoxy)phenyl)-2-methyl-6-(morpholinomethyl)-4-(7-azaspiro[3.5]nonan-7-yl)pyridin-3-yl)acetic acid]	> 7.00	
Cc1nc(C)c([C@H](OC(C)(C)C)C(=O)O)c(N2CCCC3(CCCC3)C2)c1-c1ccc(C(=O)NCc2ccccc2)cc1 [Example 19, (S)-2-(5-(4-(Benzylcarbamoyl)phenyl)-2,6-dimethyl-4-(7-azaspiro[4.5]decan-7-yl)pyridin-3-yl)-2-(tert-butoxy)acetic acid]	6.00 to 7.00	
COc1ccc(NCc2nc(C)c([C@H](OC(C)(C)C)C(=O)O)c(N3CCC4(CCC4)CC3)c2-c2ccc(OCCc3ccc(F)cc3)cc2)cc1 [Example 47, (S)-2-(tert-Butoxy)-2-(5-(4-(4-fluorophenethoxy)phenyl)-6-(((4-methoxyphenyl)-amino)methyl)-2-methyl-4-(7-azaspiro[3.5]nonan-7-yl)pyridin-3-yl)acetic acid]	> 7.00	
Cc1nc(C)c([C@H](OC(C)(C)C)C(=O)O)c(N2CC3CCC(C)(C2)C3(C)C)c1-c1ccc(C(=O)NCc2ccccc2)cc1 (stereo partly drawn) [Example 5, (S)-2-(5-(4-(Benzylcarbamoyl)phenyl)-2,6-dimethyl-4-(1,8,8-trimethyl-3-azabicyclo[3.2.1]octan-3-yl)pyridin-3-yl)-2-(tert-butoxy)acetic acid]	> 7.00	
Cc1nc(C)c([C@H](OC(C)(C)C)C(=O)O)c(N2CCC3(CCCC3)CC2)c1-c1ccc(C(=O)NCc2ccccc2)cc1 [Example 21, (S)-2-(5-(4-(Benzylcarbamoyl)phenyl)-2,6-dimethyl-4-(8-azaspiro[4.5]decan-8-yl)pyridin-3-yl)-2-(tert-butoxy)acetic acid]	> 7.00	
Cc1nc(COC2CCOCC2)c(-c2ccc(OCCc3ccc(F)cc3)cc2)c(N2CCC3(CCC3)CC2)c1[C@H](OC(C)(C)C)C(=O)O [Example 52, (S)-2-(tert-Butoxy)-2-(5-(4-(4-fluorophenethoxy)phenyl)-2-methyl-4-(7-azaspiro[3.5]nonan-7-yl)-6-(((tetrahydro-2H-pyran-4-yl)oxy)methyl)pyridin-3-yl)acetic acid]	> 7.00	
Cc1nc(CNC2CCOCC2)c(-c2ccc(OCCc3ccc(F)cc3)cc2)c(N2CCC3(CCC3)CC2)c1[C@H](OC(C)(C)C)C(=O)O [Example 55, (S)-2-(tert-Butoxy)-2-(5-(4-(4-fluorophenethoxy)phenyl)-2-methyl-4-(7-azaspiro[3.5]nonan-7-yl)-6-(((tetrahydro-2H-pyran-4-yl)amino)methyl)pyridin-3-yl)acetic acid]	> 7.00	0.001 µM
